# Experimental data as given in US20210261570A1, “ANTIBIOTIC RESISTANCE BREAKERS” (KING'S COLLEGE LONDON, priority 2017, published 2021).
# Several values for one entry are separate records, joined by “and”; a condition that tells them apart may be missing. Identical values can stand only once. Like-named read-outs stand apart in the source and are kept apart here.
# What was measured:
# [1] = tested on: Neisseria gonorrhoeae strains; type: cell-based
# Excerpt: Untreated controls and blank wells were included.
# [2] = tested on: Safetyscreen44 panel
# [3] = biological target: Safetyscreen44 panel (Homo sapiens, UniProt P21728); conditions: D1 (h) (antagonist radioligand)
# Safetyscreen44 panel (Homo sapiens, UniProt P21728), sequence (P21728 whole entry): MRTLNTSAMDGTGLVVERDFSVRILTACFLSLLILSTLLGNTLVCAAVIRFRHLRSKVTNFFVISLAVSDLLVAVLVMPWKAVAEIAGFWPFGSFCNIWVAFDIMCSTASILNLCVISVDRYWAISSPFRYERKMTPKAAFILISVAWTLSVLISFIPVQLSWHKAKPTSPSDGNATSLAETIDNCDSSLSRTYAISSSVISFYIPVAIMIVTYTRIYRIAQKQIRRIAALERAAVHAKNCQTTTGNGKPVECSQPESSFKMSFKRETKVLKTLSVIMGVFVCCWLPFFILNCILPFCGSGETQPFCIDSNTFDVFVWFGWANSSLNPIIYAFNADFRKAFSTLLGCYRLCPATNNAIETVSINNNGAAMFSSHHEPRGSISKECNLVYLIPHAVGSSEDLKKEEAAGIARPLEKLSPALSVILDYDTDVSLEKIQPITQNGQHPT
# [4] = tested on: Staphylococcus aureus ATCC29213; assay: Murine model of thigh infection (neutropenic ICR mice); conditions: for decrease of thigh bacterial burden compared to vehicle group: 8 h and 14 h post infection
# Excerpt: 40 Male mice used in these study were supplied by Charles River UK and were specific pathogen free. The strain of mouse used was Hsd:ICR (CD-1®), which is a well characterized outbred strain. Mice were 11-15 g on receipt at Evotec's facility and were allowed to acclimatize for minimum of 7 days prior to infection. Mice were approximately 28 g at the start of the study. Mice were housed in sterile individual ventilated cages exposing animals at all times to HEPA filtered sterile air. Mice had free access to food and water (sterile) and had sterile aspen chip bedding. The room temperature was 22° C.±1° C., with a relative humidity of 50-60% and maximum background noise of 56 dB. Mice were exposed to 12 hour light/dark cycles with dawn/dusk phases.
# All mice were rendered neutropenic by immunosuppression with cyclophosphamide at 150 mg/kg 4 days before infection and then 100 mg/kg 1 day before infection administered by intraperitoneal injection. The immunosuppression regime leads to neutropenia starting 24 hours post administration of the first injection, which continues throughout the study. Mice were infected approximately 24 hours after the second dose of immunosuppressive agent.
# Staphylococcus aureus ATCC29213 was used for the study.
# Whilst still under anaesthesia mice were administered a single dose of buprenorphine (0.03 mg/kg) subcutaneously for pain relief.
# Test articles and comparator were prepared in stock solutions at 10× concentration as described in Table 20. The stock solutions were prepared in aliquots (1 aliquot per time of dosing) and frozen at −20° C. The solutions were thawed and then diluted in water just before dosing to obtain the appropriate concentration of 5 mg/mL or 2 mg/mL for oral administration at 10 mL/kg of the dose of 50 mg/kg or 20 mg/kg respectively (Table 20). 10% DMSO in water was used as the vehicle
# After sacrifice of animal, both posterior thighs were removed, weighed, then homogenised in 2 mL PBS using a Precellys bead beater and the homogenates individually quantitatively cultured on CLED agar to determine the bacterial burdens.
# The data from the culture burdens were analysed using appropriate non-parametric statistical models (Kruskal-Wallis using Conover-Inman to make all pairwise comparisons between groups) with StatsDirect software v. 2.7.8., and compared to pre-treatment and vehicle controls.
compound,measurement,setting,value
C[C@H]1COc2c(N3CC[C@@H](Nc4ncccn4)C3)c(F)cc3c(=O)c(C(=O)O)cn1c23 [KSN-82-L22],MIC,"[1]; strain FDA-CDC AR-BANK#0196, resistance CIP-R PEN-R TET-R",2 µg/mL
same,MIC,"[1]; strain FDA-CDC AR-BANK#0197, resistance CIP-R PEN-I TET-I",2 µg/mL
same,MIC,"[1]; strain FDA-CDC AR-BANK#0198, resistance CIP-R PEN-R TET-R",2 µg/mL
same,MIC,"[1]; strain FDA-CDC AR-BANK#0199, resistance CIP-S PEN-R TET-R",≤0.03125 µg/mL
same,MIC,"[1]; strain FDA-CDC AR-BANK#0200, resistance CIP-R PEN-R TET-R",2 µg/mL
same,MIC,"[1]; strain FDA-CDC AR-BANK#0201, resistance CIP-R PEN-R TET-R",2 µg/mL
same,MIC,"[1]; strain FDA-CDC AR-BANK#0202, resistance CIP-S PEN-S TET-I",≤0.03125 µg/mL
same,MIC,"[1]; strain FDA-CDC AR-BANK#0203, resistance CIP-R PEN-R TET-R",2 µg/mL
same,MIC,"[1]; strain FDA-CDC AR-BANK#0204, resistance CIP-R PEN-I TET-R",2 µg/mL
same,MIC,"[1]; strain FDA-CDC AR-BANK#0205, resistance CIP-R PEN-R TET-R",2 µg/mL
same,MIC,"[1]; strain FDA-CDC AR-BANK#0206, resistance CIP-R PEN-R TET-R",2 µg/mL
same,MIC,"[1]; strain FDA-CDC AR-BANK#0207, resistance CIP-R PEN-R TET-R",2 µg/mL
same,MIC,"[1]; strain FDA-CDC AR-BANK#0208, resistance CIP-R PEN-I TET-R",2 µg/mL
same,MIC,"[1]; strain FDA-CDC AR-BANK#0209, resistance CIP-R PEN-I TET-R",2 µg/mL
same,MIC,"[1]; strain FDA-CDC AR-BANK#0210, resistance CIP-R PEN-I TET-I",2 µg/mL
same,MIC,"[1]; strain FDA-CDC AR-BANK#0211, resistance CIP-R PEN-R TET-R",2 µg/mL
same,MIC,"[1]; strain FDA-CDC AR-BANK#0212, resistance CIP-R PEN-I TET-R",2 µg/mL
same,MIC,"[1]; strain FDA-CDC AR-BANK#0213, resistance CIP-R PEN-I TET-I",1 µg/mL
same,MIC,"[1]; strain FDA-CDC AR-BANK#0214, resistance CIP-R PEN-R TET-R",2 µg/mL
same,MIC,"[1]; strain NCTC 13817, resistance PEN-R TET-I",0.5 µg/mL
same,MIC,"[1]; strain NCTC 13818, resistance CIP-R OFX-R PEN-R TET-R",2 µg/mL
same,MIC,"[1]; strain NCTC 13819, resistance FEP-NS CAZ-NS CIP-R OFX-R PEN-R TET-I",2 µg/mL
same,MIC,"[1]; strain NCTC 13820, resistance FEP-NS CFM-NS CAZ-NS CRO-NS CIP-R OFX-R PEN-R TET-R",2 µg/mL
same,MIC,"[1]; strain NCTC 13821, resistance FEP-NS CFM-NS CAZ-NS CRO-NS CIP-R PEN-I TET-I",2 µg/mL
same,MIC,"[1]; strain NCTC 13822, resistance FEP-NS CFM-NS CAZ-NS CIP-R OFX-R PEN-R TET-I",2 µg/mL
same,MIC,"[1]; strain TCDC-NG08107, resistance PEN-R CFM-R CPD-R CIP-R",2 µg/mL
same,% inhibition,[2]; KV channel (antagonist radioligand),−4.644%
same,% inhibition,[2]; alpha 2A (h) (antagonist radioligand),4.4791%
same,% inhibition,[3],−15.4033%
same,"Bodyweight raw data, individual mouse","[4]; 20 mg/kg group, day 0 (day of infection)",29.4 and 27.2 and 30.5 and 29.7
same,"Bodyweight raw data, individual mouse","[4]; 20 mg/kg group, day 1 post infection",29.3 and 29.5 and 27.5 and 31.3 and 31.0
same,"Bodyweight raw data, individual mouse","[4]; 20 mg/kg group, day −1 post infection (before treatment)",29.1 and 29.2 and 27.3 and 30.2 and 29.8
same,"Bodyweight raw data, individual mouse","[4]; 20 mg/kg group, day −4 post infection (before treatment)",28.7 and 30.2 and 26.9 and 29.8 and 29.7
same,decrease of thigh bacterial burden compared to vehicle group,"[4]; 20 mg/kg/dose oral at 2 h, 18 h post infection",5 log10 CFU/g and > 5 log10 CFU/g
same,"Bodyweight raw data, individual mouse","[4]; 50 mg/kg group, day 0 (day of infection)",28.2 and 27.8 and 29.3 and 26.6 and 25.6
same,"Bodyweight raw data, individual mouse","[4]; 50 mg/kg group, day 1 post infection",29 and 28.1 and 30.1 and 26.1 and 26.4
same,"Bodyweight raw data, individual mouse","[4]; 50 mg/kg group, day −1 post infection (before treatment)",27.9 and 29.5 and 29.1 and 26.5 and 26.8
same,"Bodyweight raw data, individual mouse","[4]; 50 mg/kg group, day −4 post infection (before treatment)",27.8 and 29.2 and 28.9 and 27.0 and 27.9
same,decrease of thigh bacterial burden compared to vehicle group,"[4]; 50 mg/kg/dose oral at 2 h, 18 h post infection",> 5 log10 CFU/g
same,"thigh bacterial burden, result in words","[4]; 20 and 50 mg/kg, 18 h post infection",significantly decreased bacterial burden
same,body weights following infection,"[4]; infected neutropenic mice, treated groups",slightly increased
same,"Statistic analysis of thigh burden, P versus ML-83-009 20 mg/kg",[4]; substance at 20 mg/kg,P < 0.0001
same,"Statistic analysis of thigh burden, P versus ML-83-009 50 mg/kg",[4]; substance at 20 mg/kg,P = 0.0002
same,"Statistic analysis of thigh burden, P versus Pre treatment",[4]; substance at 20 mg/kg,P = 0.0139
same,"Statistic analysis of thigh burden, P versus Vehicle",[4]; substance at 20 mg/kg,P < 0.0001
same,"Statistic analysis of thigh burden, P versus ML-83-009 20 mg/kg",[4]; substance at 50 mg/kg,P < 0.0001
same,"Statistic analysis of thigh burden, P versus ML-83-009 50 mg/kg",[4]; substance at 50 mg/kg,P < 0.0001
same,"Statistic analysis of thigh burden, P versus Pre treatment",[4]; substance at 50 mg/kg,P = 0.0026
same,"Statistic analysis of thigh burden, P versus Vehicle",[4]; substance at 50 mg/kg,P < 0.0001
